Test results as given in the supplement of paper PMC10307832.

Tests used:
Assay in all cases: relative viability (nuclei count vs DMSO), 5 days (fraction); higher = more cells survive
H3255 = tested on: H3255
How it was run: (§1)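 Relative viability divides the nuclei count in treated wells by that in vehicle wells. Lung cancer cell lines were seeded in 1536-well plates, dosed by pin tool the next day, and fixed and stained after 5 days in one step with final 0.05% Triton X-100, 1% formaldehyde and 1 ug/ml Hoechst. Dosing was a single drug or a fixed anchor-drug dose plus five library-drug doses (not always all listed) in √10 steps, and values are medians of duplicate plates imaged at 4×.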

NCI-H1650 = tested on: NCI-H1650
How it was run: as §1

CAL-12T = tested on: CAL-12T
How it was run: as §1

NCI-H2009 = tested on: NCI-H2009
How it was run: as §1

NCI-H2087 = tested on: NCI-H2087
How it was run: as §1

LU99A = tested on: LU99A
How it was run: as §1

UMC-11 = tested on: UMC-11
How it was run: as §1

SK-LU-1 = tested on: SK-LU-1
How it was run: as §1

NCI-H520 = tested on: NCI-H520
How it was run: as §1

SK-MES-1 = tested on: SK-MES-1
How it was run: as §1

NCI-H1734 = tested on: NCI-H1734
How it was run: as §1

EKVX = tested on: EKVX
How it was run: as §1

EMC-BAC-2 = tested on: EMC-BAC-2
How it was run: as §1

NCI-H2085 = tested on: NCI-H2085
How it was run: as §1

BEN = tested on: BEN
How it was run: as §1

LC-2-ad = tested on: LC-2-ad
How it was run: as §1

SW 1573 = tested on: SW 1573
How it was run: as §1

NCI-H1792 = tested on: NCI-H1792
How it was run: as §1

NCI-H1993 = tested on: NCI-H1993
How it was run: as §1

NCI-H838 = tested on: NCI-H838
How it was run: as §1

NCI-H1355 = tested on: NCI-H1355
How it was run: as §1

## Nc1cccc2c1CN(C1CCC(=O)NC1=O)C2=O (centres undefined) [Lenalidomide] + CC1(C)CCC(c2ccc(Cl)cc2)=C(CN2CCN(c3ccc(C(=O)NS(=O)(=O)c4ccc(N[C@H](CCN5CCOCC5)CSc5ccccc5)c(S(=O)(=O)C(F)(F)F)c4)cc3)CC2)C1 [Navitoclax] (partner 0.5 µM)
H3255; first compound 0.253 µM
  relative viability: 0.519
H3255; first compound 0.8 µM
  relative viability: 0.395
H3255; first compound 2.53 µM
  relative viability: 0.589
H3255; first compound 8 µM
  relative viability: 0.523
NCI-H1650; first compound 0.253 µM
  relative viability: 1.06
NCI-H1650; first compound 0.8 µM
  relative viability: 1.22
NCI-H1650; first compound 2.53 µM
  relative viability: 1.4
NCI-H1650; first compound 8 µM
  relative viability: 1.24
CAL-12T; first compound 0.253 µM
  relative viability: 1.4
CAL-12T; first compound 0.8 µM
  relative viability: 1.33
CAL-12T; first compound 2.53 µM
  relative viability: 1.7
CAL-12T; first compound 8 µM
  relative viability: 1.3
NCI-H2009; first compound 0.253 µM
  relative viability: 1.21
NCI-H2009; first compound 0.8 µM
  relative viability: 1.26
NCI-H2009; first compound 2.53 µM
  relative viability: 1.21
NCI-H2009; first compound 8 µM
  relative viability: 1.28
NCI-H2087; first compound 0.253 µM
  relative viability: 1.03
NCI-H2087; first compound 0.8 µM
  relative viability: 0.971
NCI-H2087; first compound 2.53 µM
  relative viability: 0.962
NCI-H2087; first compound 8 µM
  relative viability: 1.06
LU99A; first compound 0.253 µM
  relative viability: 0.853
LU99A; first compound 0.8 µM
  relative viability: 0.963
LU99A; first compound 2.53 µM
  relative viability: 0.925
LU99A; first compound 8 µM
  relative viability: 0.502
UMC-11; first compound 0.253 µM
  relative viability: 0.317
UMC-11; first compound 0.8 µM
  relative viability: 0.28
UMC-11; first compound 2.53 µM
  relative viability: 0.346
UMC-11; first compound 8 µM
  relative viability: 0.277
SK-LU-1; first compound 0.253 µM
  relative viability: 0.729
SK-LU-1; first compound 0.8 µM
  relative viability: 0.946
SK-LU-1; first compound 2.53 µM
  relative viability: 1.45
SK-LU-1; first compound 8 µM
  relative viability: 0.924
NCI-H520; first compound 0.253 µM
  relative viability: 0.958
NCI-H520; first compound 0.8 µM
  relative viability: 1.05
NCI-H520; first compound 2.53 µM
  relative viability: 1.22
NCI-H520; first compound 8 µM
  relative viability: 0.892
SK-MES-1; first compound 0.253 µM
  relative viability: 1.12
SK-MES-1; first compound 0.8 µM
  relative viability: 1.15
SK-MES-1; first compound 2.53 µM
  relative viability: 1.3
SK-MES-1; first compound 8 µM
  relative viability: 1.17
NCI-H1734; first compound 0.253 µM
  relative viability: 0.802
NCI-H1734; first compound 0.8 µM
  relative viability: 0.831
NCI-H1734; first compound 2.53 µM
  relative viability: 1.01
NCI-H1734; first compound 8 µM
  relative viability: 0.796
EKVX; first compound 0.253 µM
  relative viability: 0.882
EKVX; first compound 0.8 µM
  relative viability: 0.855
EKVX; first compound 2.53 µM
  relative viability: 1.13
EKVX; first compound 8 µM
  relative viability: 0.843
EMC-BAC-2; first compound 0.253 µM
  relative viability: 1.18
EMC-BAC-2; first compound 0.8 µM
  relative viability: 1.15
EMC-BAC-2; first compound 2.53 µM
  relative viability: 1.33
EMC-BAC-2; first compound 8 µM
  relative viability: 0.975
NCI-H2085; first compound 0.253 µM
  relative viability: 1.25
NCI-H2085; first compound 0.8 µM
  relative viability: 1.16
NCI-H2085; first compound 2.53 µM
  relative viability: 1.26
NCI-H2085; first compound 8 µM
  relative viability: 1.2
BEN; first compound 0.253 µM
  relative viability: 0.0599
BEN; first compound 0.8 µM
  relative viability: 0.0573
BEN; first compound 2.53 µM
  relative viability: 0.0663
BEN; first compound 8 µM
  relative viability: 0.0611
LC-2-ad; first compound 0.253 µM
  relative viability: 0.448
LC-2-ad; first compound 0.8 µM
  relative viability: 0.421
LC-2-ad; first compound 2.53 µM
  relative viability: 0.478
LC-2-ad; first compound 8 µM
  relative viability: 0.44
SW 1573; first compound 0.253 µM
  relative viability: 0.931
SW 1573; first compound 0.8 µM
  relative viability: 0.911
SW 1573; first compound 2.53 µM
  relative viability: 1.07
SW 1573; first compound 8 µM
  relative viability: 0.926
NCI-H1792; first compound 0.253 µM
  relative viability: 0.74
NCI-H1792; first compound 0.8 µM
  relative viability: 0.582
NCI-H1792; first compound 2.53 µM
  relative viability: 0.848
NCI-H1792; first compound 8 µM
  relative viability: 0.364
NCI-H1993; first compound 0.253 µM
  relative viability: 0.906
NCI-H1993; first compound 0.8 µM
  relative viability: 0.855
NCI-H1993; first compound 2.53 µM
  relative viability: 0.88
NCI-H1993; first compound 8 µM
  relative viability: 0.797
NCI-H838; first compound 0.253 µM
  relative viability: 1.15
NCI-H838; first compound 0.8 µM
  relative viability: 1.09
NCI-H838; first compound 2.53 µM
  relative viability: 1.29
NCI-H838; first compound 8 µM
  relative viability: 1.1
NCI-H1355; first compound 0.253 µM
  relative viability: 1
NCI-H1355; first compound 0.8 µM
  relative viability: 0.737
NCI-H1355; first compound 2.53 µM
  relative viability: 0.889
NCI-H1355; first compound 8 µM
  relative viability: 0.561
